Calls of active or inactive are those of the source. No cut-off for these calls is given here.
Key:
[1] = Cytotoxicity against human HepG2 cells assessed as inhibition of cell growth incubated for 24 hrs by neutral red dye based analysis; format: toxicity
[2] = Selectivity index, ratio of IC50 for cytotoxicity against HEK293 cells to IC50 for antiplasmodial activity against chloroquine-sensitive asexual blood stage Plasmodium falciparum 3D7; format: toxicity, cell-based; details: human, read-out: Ratio IC50
[3] = tested on: Plasmodium berghei; test: Antimalarial activity against Plasmodium berghei infected in mouse assessed as reduction in parasitemia in blood at 50 mg/kg, po administered for 4 times starting from 4 to 72 hrs and measured after 96 hrs post infection (reference value: 0%); format: functional; parameters: scale not given: the % may be the effect or the level left
[4] = Cytotoxicity against HEK293 cells assessed as inhibition of cell growth incubated for 24 hrs by neutral red dye based analysis; format: toxicity; details: human
[5] = Selectivity index, ratio of IC50 for cytotoxicity against human HepG2 cells to IC50 for antiplasmodial activity against chloroquine-sensitive asexual blood stage Plasmodium falciparum 3D7; format: toxicity, cell-based; details: read-out: Ratio IC50
[6] = Selectivity index, ratio of IC50 for cytotoxicity against human HeLa cells to IC50 for antiplasmodial activity against chloroquine-sensitive asexual blood stage Plasmodium falciparum 3D7; format: toxicity, cell-based; details: read-out: Ratio IC50
[7] = Cytotoxicity against human HeLa cells assessed as inhibition of cell growth incubated for 24 hrs by neutral red dye based analysis; format: toxicity
[8] = tested on: Plasmodium falciparum; test: Antiplasmodial activity against chloroquine-sensitive asexual blood stage Plasmodium falciparum 3D7 assessed as inhibition of parasite growth incubated for […] by HRP2-ELISA; format: functional, organism-based
[9] = tested on: Plasmodium falciparum; test: Antiplasmodial activity against multidrug resistant asexual blood stage Plasmodium falciparum Dd2 assessed as inhibition of parasite growth incubated for […] by HRP2-ELISA; format: functional, organism-based
[10] = tested on: Plasmodium berghei; test: Antimalarial activity against Plasmodium berghei infected in mouse assessed as reduction in parasitemia in blood at 30 mg/kg, po administered for 4 times starting from 4 to 72 hrs and measured after 96 hrs post infection (reference value: 0%); format: functional; parameters: scale not given: the % may be the effect or the level left
[11] = tested on: Plasmodium falciparum; test: Inhibition of hemozoin formation in sorbitol-synchronized early ring stage plasmodium falciparum NF54 trophozoites assessed as increase in free heme level at 1 to 2.5 times IC50 incubated for 28 hrs by flow cytometry analysis; format: functional
[12] = tested on: Plasmodium berghei; test: Antimalarial activity against Plasmodium berghei infected in mouse assessed as mean survival days at 30 mg/kg, po administered for 4 times starting from 4 to 72 hrs and monitered for 30 days (reference value: 4 days); format: functional; details: time 30 day
[13] = tested on: Plasmodium falciparum; test: Inhibition of hemozoin formation in sorbitol-synchronized early ring stage plasmodium falciparum NF54 trophozoites assessed as reduction in hemozoin level at 1 to 2.5 times IC50 incubated for 28 hrs by flow cytometry analysis; format: functional
[14] = Cmax in mouse infected with Plasmodium berghei at 10 mg/kg, po administered as single dose and measured for 24 hrs by LC-MS/MS analysis; format: ADME, organism-based; parameters: dose 10 mg/kg, time 24 hrs, route po; details: in vivo
[15] = AUC(0 to t) in mouse infected with Plasmodium berghei at 3 mg/kg, po administered as single dose and measured for 24 hrs by LC-MS/MS analysis; format: ADME, organism-based; parameters: dose 3 mg/kg, time 24 hrs, route po; details: in vivo
[16] = AUC(0 to t) in mouse infected with Plasmodium berghei at 10 mg/kg, po administered as single dose and measured for 24 hrs by LC-MS/MS analysis; format: ADME, organism-based; parameters: time 24 hrs, dose 10 mg/kg, route po; details: in vivo
[17] = Half life in mouse infected with Plasmodium berghei at 30 mg/kg, po administered as single dose and measured for 24 hrs by LC-MS/MS analysis; format: ADME, organism-based; details: in vivo
[18] = tested on: Plasmodium berghei; test: Antimalarial activity against Plasmodium berghei infected in mouse assessed as mean survival days at 50 mg/kg, po administered for 4 times starting from 4 to 72 hrs and monitered for 30 days (reference value: 4 days); format: functional; details: time 30 day
[19] = Elimination half life in mouse infected with Plasmodium berghei at 3 mg/kg, po administered as single dose and measured for 24 hrs by LC-MS/MS analysis; format: ADME, organism-based; details: in vivo, read-out: beta t1/2 (converted)
[20] = tested on: Plasmodium falciparum; test: Antiplasmodial activity against hyper mutating Plasmodium falciparum Dd2 harboring proofreading-deficient DNA polymerase delta assessed as inhibition of parasite growth incubated for 72 hrs by SYBR green-based assay; format: functional, organism-based; details: Dd2, 72 h
[21] = tested on: Plasmodium falciparum; test: Inhibition of hemozoin formation in sorbitol-synchronized early ring stage plasmodium falciparum NF54 trophozoites assessed as increase in free heme level at 2.5 times IC50 incubated for 28 hrs by flow cytometry analysis; format: functional
[22] = tested on: Plasmodium falciparum; test: Antiplasmodial activity against sorbitol-synchronized early ring stage plasmodium falciparum NF54 trophozoites assessed as inhibition of parasite growth incubated for 72 hrs by SYBR green-based parasite susceptibility assay; format: functional, organism-based; details: NF54, 72 h
[23] = Chemical stability of compound in Tween20/ethanol/phosphate buffer at pH 2 assessed as drug degradation measured over 24 hrs; format: physicochemical; details: read-out: Drug degradation
[24] = tested on: Plasmodium falciparum; test: Inhibition of hemozoin formation in sorbitol-synchronized early ring stage plasmodium falciparum NF54 trophozoites assessed as reduction in hemozoin level at 2.5 times IC50 incubated for 28 hrs by flow cytometry analysis; format: functional
[25] = AUC(0 to t) in mouse infected with Plasmodium berghei at 30 mg/kg, po administered as single dose and measured for 24 hrs by LC-MS/MS analysis; format: ADME, organism-based; parameters: dose 30 mg/kg, time 24 hrs, route po; details: in vivo
[26] = tested on: Plasmodium falciparum; test: Induction of drug resistance in Plasmodium falciparum Dd2 clone FL3-C3 assessed as fold increase in IC50 incubated for 72 hrs by SYBR green-based assay; format: functional
[27] = Elimination half life in mouse infected with Plasmodium berghei at 30 mg/kg, po administered as single dose and measured for 24 hrs by LC-MS/MS analysis; format: ADME, organism-based; details: in vivo, read-out: beta t1/2 (converted)
[28] = tested on: Plasmodium falciparum; test: Antiplasmodial activity against multidrug resistant asexual blood stage Plasmodium falciparum Dd2-B2 assessed as inhibition of parasite growth incubated for 72 hrs by SYBR green-based assay; format: functional, organism-based; details: Dd2-B2, 72 h
[29] = Metabolic stability in human liver microsomes assessed as intrinsic clearance; format: ADME, Microsome
[30] = Observed AUC(0 to infinity) in mouse infected with Plasmodium berghei at 10 mg/kg, po administered as single dose and measured for 24 hrs by LC-MS/MS analysis; format: ADME, organism-based; parameters: dose 10 mg/kg, time 24 hrs, route po; details: in vivo
[31] = Observed AUC(0 to infinity) in mouse infected with Plasmodium berghei at 3 mg/kg, po administered as single dose and measured for 24 hrs by LC-MS/MS analysis; format: ADME, organism-based; parameters: dose 3 mg/kg, time 24 hrs, route po; details: in vivo
[32] = Tmax in mouse infected with Plasmodium berghei at 3 mg/kg, po administered as single dose and measured for 24 hrs by LC-MS/MS analysis; format: ADME, organism-based; details: in vivo
[33] = Metabolic stability in human liver microsomes assessed as parent compound remaining at 2 uM incubated for 40 mins in presence of NADPH by LC-MS/MS analysis; format: ADME, Microsome; details: read-out: Stability
[34] = Half life in mouse infected with Plasmodium berghei at 10 mg/kg, po administered as single dose and measured for 24 hrs by LC-MS/MS analysis; format: ADME, organism-based; details: in vivo
[35] = tested on: Plasmodium berghei; test: Antimalarial activity against Plasmodium berghei infected in mouse assessed as reduction in parasitemia in blood at 10 mg/kg, po administered for 4 times starting from 4 to 72 hrs and measured after 96 hrs post infection (reference value: 0%); format: functional; parameters: scale not given: the % may be the effect or the level left
[36] = Elimination half life in mouse infected with Plasmodium berghei at 10 mg/kg, po administered as single dose and measured for 24 hrs by LC-MS/MS analysis; format: ADME, organism-based; details: in vivo, read-out: beta t1/2 (converted)
[37] = Observed AUC(0 to infinity) in mouse infected with Plasmodium berghei at 30 mg/kg, po administered as single dose and measured for 24 hrs by LC-MS/MS analysis; format: ADME, organism-based; parameters: dose 30 mg/kg, time 24 hrs, route po; details: in vivo
[38] = Cmax in mouse infected with Plasmodium berghei at 3 mg/kg, po administered as single dose and measured for 24 hrs by LC-MS/MS analysis; format: ADME, organism-based; parameters: time 24 hrs, dose 3 mg/kg, route po; details: in vivo
[39] = Chemical stability of compound in Tween20/ethanol/phosphate buffer at pH 7.5 assessed as drug degradation measured over 24 hrs; format: physicochemical; details: read-out: Drug degradation
[40] = Tmax in mouse infected with Plasmodium berghei at 30 mg/kg, po administered as single dose and measured for 24 hrs by LC-MS/MS analysis; format: ADME, organism-based; details: in vivo
[41] = tested on: Plasmodium falciparum; test: Induction of drug resistance in Plasmodium falciparum Dd2 clone FL2-C4 assessed as fold increase in IC50 incubated for 72 hrs by SYBR green-based assay; format: functional
[42] = Cmax in mouse infected with Plasmodium berghei at 30 mg/kg, po administered as single dose and measured for 24 hrs by LC-MS/MS analysis; format: ADME, organism-based; parameters: dose 30 mg/kg, time 24 hrs, route po; details: in vivo
[43] = target: Voltage-gated inwardly rectifying potassium channel KCNH2 (Homo sapiens, UniProt Q12809); test: Inhibition of hERG by fluorescence polarization assay; format: toxicity
[44] = Tmax in mouse infected with Plasmodium berghei at 10 mg/kg, po administered as single dose and measured for 24 hrs by LC-MS/MS analysis; format: ADME, organism-based; details: in vivo
[45] = Half life in mouse infected with Plasmodium berghei at 3 mg/kg, po administered as single dose and measured for 24 hrs by LC-MS/MS analysis; format: ADME, organism-based; details: in vivo
[46] = tested on: Plasmodium berghei; test: Antimalarial activity against Plasmodium berghei infected in mouse assessed as reduction in parasitemia in blood at 3 mg/kg, po administered for 4 times starting from 4 to 72 hrs and measured after 96 hrs post infection (reference value: 0 %); format: functional; parameters: scale not given: the % may be the effect or the level left

Voltage-gated inwardly rectifying potassium channel KCNH2, sequence (Q12809 whole entry): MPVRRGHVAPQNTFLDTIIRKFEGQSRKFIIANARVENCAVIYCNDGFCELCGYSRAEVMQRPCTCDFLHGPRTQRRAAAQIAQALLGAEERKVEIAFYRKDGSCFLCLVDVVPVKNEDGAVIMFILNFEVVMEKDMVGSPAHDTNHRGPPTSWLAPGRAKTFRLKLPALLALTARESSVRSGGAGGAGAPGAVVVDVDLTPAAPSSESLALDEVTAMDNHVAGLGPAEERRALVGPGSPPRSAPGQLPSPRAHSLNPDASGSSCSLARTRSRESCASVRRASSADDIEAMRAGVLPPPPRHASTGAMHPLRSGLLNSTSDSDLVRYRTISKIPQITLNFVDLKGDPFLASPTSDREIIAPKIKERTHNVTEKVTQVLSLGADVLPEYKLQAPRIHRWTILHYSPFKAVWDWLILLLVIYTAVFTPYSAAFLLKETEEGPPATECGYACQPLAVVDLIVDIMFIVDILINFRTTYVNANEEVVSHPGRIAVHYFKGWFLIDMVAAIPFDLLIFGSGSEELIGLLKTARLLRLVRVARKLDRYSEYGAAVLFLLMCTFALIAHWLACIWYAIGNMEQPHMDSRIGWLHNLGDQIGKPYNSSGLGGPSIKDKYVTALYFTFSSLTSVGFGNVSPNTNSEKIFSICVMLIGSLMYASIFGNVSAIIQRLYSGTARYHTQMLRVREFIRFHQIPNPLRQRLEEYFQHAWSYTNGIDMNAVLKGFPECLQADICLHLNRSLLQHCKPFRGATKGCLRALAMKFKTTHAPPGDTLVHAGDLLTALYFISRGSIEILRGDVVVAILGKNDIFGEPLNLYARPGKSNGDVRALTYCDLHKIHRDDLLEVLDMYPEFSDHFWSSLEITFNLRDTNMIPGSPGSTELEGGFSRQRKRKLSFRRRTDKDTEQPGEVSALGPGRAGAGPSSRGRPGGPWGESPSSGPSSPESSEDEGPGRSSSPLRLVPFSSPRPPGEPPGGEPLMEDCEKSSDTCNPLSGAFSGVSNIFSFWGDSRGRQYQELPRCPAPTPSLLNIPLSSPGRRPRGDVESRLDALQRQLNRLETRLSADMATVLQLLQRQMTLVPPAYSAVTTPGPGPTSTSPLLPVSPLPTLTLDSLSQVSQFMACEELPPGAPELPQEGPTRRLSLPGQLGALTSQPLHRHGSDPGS

Cl.N/C(CC(O)c1c2ccccc2cc2ccccc12)=N\c1ccc(F)cc1 (centres undefined)
IC50 at 24 h [1]: 7.5 µM
selectivity ratio [2]: 15700
Activity [3]: 40%
IC50 at 24 h [4]: 78.3 µM
selectivity ratio [5]: 1500
selectivity ratio [6]: 25400
IC50 at 24 h [7]: 127 µM
IC50 [8]: 0.005 µM
IC50 [9]: 0.009 µM

CCN(CC)CCCC(C)Nc1ccnc2cc(Cl)ccc12 (centres undefined) [CHLOROQUINE]
Activity [10]: 99.9%
inhibition [11]: Active
MSD [12]: 21 days
inhibition [13]: Active
IC50 at 24 h [4]: > 1000 µM
IC50 at 24 h [7]: > 1000 µM

COc1ccc(/N=C(\N)CC(O)c2cc3c(F)cc(F)cc3c3cc(C(F)(F)F)ccc23)cc1.Cl (centres undefined)
Cmax [14]: 23 ng/mL
Activity [10]: 99.9%
AUCt [15]: 20.4 ng·h/mL
AUCt [16]: 192.1 ng·h/mL
t1/2 [17]: 421 min
IC50 at 24 h [1]: 4.3 µM
MSD [18]: 27 days
half-life [19]: 7.58 min
MSD [12]: 17 days
IC50 [20]: 0.015 µM
inhibition [21]: Active
IC50 [22]: 0.0084 µM
Activity [3]: 99.8%
degraded at 24 h [23]: 0.1%
inhibition [24]: Active
AUCt [25]: 783.1 ng·h/mL
fold change (FC) [26]: 3
half-life [27]: 4.18 min
IC50 [28]: 0.0153 µM
CLH [29]: 9 µL/min/mg
AUC [30]: 199.7 ng·h/mL
AUC [31]: 21.5 ng·h/mL
Tmax [32]: 60 min
remaining at 40 min, 2 µM [33]: 86%
t1/2 [34]: 248 min
Activity [35]: 99.9%
half-life [36]: 7.91 min
AUC [37]: 848.1 ng·h/mL
Cmax [38]: 3.3 ng/mL
IC50 at 24 h [4]: 36.8 µM
degraded at 24 h [39]: 1%
selectivity ratio [5]: 860
Tmax [40]: 60 min
fold change (FC) [41]: 3
Cmax [42]: 57.3 ng/mL
IC50 [43]: 0.19 µM
Tmax [44]: 60 min
IC50 at 24 h [7]: 46.1 µM
IC50 [8]: 0.005 µM
t1/2 [45]: 313 min
IC50 [9]: 0.012 µM
Activity [46]: 0%

N/C(CC(O)c1cc2c(F)cc(F)cc2c2cc(C(F)(F)F)ccc12)=N\N=C\c1ccc(F)cc1 (centres undefined)
Activity [10]: 99.4%
MSD [18]: 22 days
MSD [12]: 25 days
IC50 [20]: 0.0268 µM
Activity [3]: 99.9%
IC50 [28]: 0.0244 µM
Activity [35]: 99.5%
